Counter-ions that a name gives are not always drawn. Like-named read-outs stand apart in the source and are kept apart here. A value given as a limit tells only on which side of the number the result lay.

For one experiment, the target named is hM3 muscarinic receptor (Homo sapiens (Human), UniProt P20309). In words: Radioligand binding assay for muscarinic receptors ([3H]-NMS displacement, CHO cell membranes). As to the method: The cells were grown in a 5% CO2, 37° C. incubator and lifted with 2 mM EDTA in dPBS. Cells were collected by 5 minute centrifugation at 650×g, and cell pellets were either stored frozen at −80° C. or membranes were prepared immediately for use. For membrane preparation, cell pellets were resuspended in lysis buffer and homogenized with a Polytron PT-2100 tissue disrupter (Kinematica AG; 20 seconds×2 bursts). Crude membranes were centrifuged at 40,000×g for 15 minutes at 4° C. The membrane pellet was then resuspended with re-suspension buffer and homogenized again with the Polytron tissue disrupter. The protein concentration of the membrane suspension was determined by the method described in Lowry et al., 1951, […], 193, 265. All membranes were stored frozen in aliquots at −80° C. or used immediately. […] The membranes were briefly homogenized using a Polytron tissue disruptor (10 seconds) prior to assay plate addition. […] The test compounds were initially dissolved to a concentration of 400 μM in dilution buffer and then serially diluted 5× with dilution buffer to final concentrations ranging from 10 μM to […]. The order of addition and volumes added to the assay plates were as follows: 25 μL radioligand, 25 μL diluted test compound, and 50 μL membranes. Assay plates were incubated for 6 hours at 37° C. […] Filter plates were rinsed three times with wash buffer (10 mM HEPES) to remove unbound radioactivity. The plates were then air-dried and 50 μL Microscint-20 liquid scintillation fluid (PerkinElmer, Inc.) were added to each well. The plates were then counted in a PerkinElmer Topcount liquid scintillation counter (PerkinElmer, Inc.). Binding data were analyzed by nonlinear regression analysis with the GraphPad Prism Software package (GraphPad Software, Inc., San Diego, Calif.) using the one-site competition model. […] These summary statistics were then converted back to K; values for data reporting.
Chain of hM3 muscarinic receptor (P20309 whole entry): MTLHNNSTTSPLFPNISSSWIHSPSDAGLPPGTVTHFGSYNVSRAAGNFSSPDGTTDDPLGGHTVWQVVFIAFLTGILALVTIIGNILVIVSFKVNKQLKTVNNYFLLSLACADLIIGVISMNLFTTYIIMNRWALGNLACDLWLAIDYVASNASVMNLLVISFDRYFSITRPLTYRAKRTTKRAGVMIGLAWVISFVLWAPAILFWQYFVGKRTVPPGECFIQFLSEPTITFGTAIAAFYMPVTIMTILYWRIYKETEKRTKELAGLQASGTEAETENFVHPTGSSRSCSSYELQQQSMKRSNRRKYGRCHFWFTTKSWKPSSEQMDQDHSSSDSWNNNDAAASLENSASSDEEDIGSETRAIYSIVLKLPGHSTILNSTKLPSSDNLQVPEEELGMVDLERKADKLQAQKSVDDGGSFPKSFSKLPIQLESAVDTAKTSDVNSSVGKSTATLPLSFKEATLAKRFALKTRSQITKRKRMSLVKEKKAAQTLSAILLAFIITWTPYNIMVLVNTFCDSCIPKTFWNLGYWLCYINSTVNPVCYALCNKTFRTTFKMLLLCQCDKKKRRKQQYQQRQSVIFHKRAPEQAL

For the next experiment, the target named is hβ2 adrenergic receptor (Homo sapiens (Human), UniProt P07550). In words: Assay for determining adrenergic receptor agonist potency (cAMP Flashplate, HEK-293 cells). It is filed as cell-based. As to conditions: data rounded to nearest 1 nM. On the procedure: The cell monolayer was lifted with 2 mM EDTA in PBS. Cells were pelleted by centrifugation at 1,000 rpm, and cell pellets were either stored frozen at −80° C. or membranes were prepared immediately for use. cAMP assays were performed in a radioimmunoassay format using the Flashplate Adenylyl Cyclase Activation Assay System with [^125I]-cAMP (NEN SMP004, PerkinElmer Life Sciences Inc., Boston, Mass.), according to the manufacturers instructions. […] Cells were rinsed with PBS and detached in dPBS (Dulbecco's Phosphate Buffered Saline, without CaCl2 and MgCl2) containing 2 mM EDTA or Trypsin-EDTA solution (0.05% trypsin/0.53 mM EDTA). After counting cells in Coulter cell counter, cells were pelleted by centrifugation at 1,000 rpm and re-suspended in stimulation buffer containing TBMX (PerkinElmer Kit) pre-warmed to room temperature to a concentration of 1.6×10^6 to 2.8×10^6 cells/mL. About 40,000 to 80,000 cells per well were used in this assay. […] Reactions were incubated for 10 min at 37° C. and stopped by adding 100 μL of cold detection buffer containing [^125I]-cAMP (NEN SMP004, PerkinElmer Life Sciences, Boston, Mass.). […] Data were analyzed by nonlinear regression analysis with the GraphPad Prism Software package (GraphPad Software, Inc., San Diego, Calif.) with the sigmoidal equation. The Cheng-Prusoff equation (Cheng Y, and Prusoff W H., Biochemical Pharmacology, 1973, 22, 23, 3099-108) was used to calculate the EC50 values.
Chain of hβ2 adrenergic receptor (P07550 whole entry): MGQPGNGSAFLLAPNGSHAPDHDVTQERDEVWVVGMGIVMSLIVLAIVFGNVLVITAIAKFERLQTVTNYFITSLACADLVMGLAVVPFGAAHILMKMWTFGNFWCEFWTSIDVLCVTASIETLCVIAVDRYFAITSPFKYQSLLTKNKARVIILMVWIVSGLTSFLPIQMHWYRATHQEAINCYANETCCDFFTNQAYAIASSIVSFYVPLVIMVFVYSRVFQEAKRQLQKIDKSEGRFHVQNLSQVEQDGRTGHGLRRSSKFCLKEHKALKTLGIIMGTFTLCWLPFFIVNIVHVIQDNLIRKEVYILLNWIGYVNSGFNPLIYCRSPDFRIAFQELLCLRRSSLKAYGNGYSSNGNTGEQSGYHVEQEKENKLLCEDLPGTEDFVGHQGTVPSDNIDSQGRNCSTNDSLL

Experiment [1] deals with MCh-induced bronchoconstriction. In words: Einthoven assay: bronchoprotection against methacholine (MCh)-induced bronchoconstriction. In kind it is in vivo, rat. As to conditions: for inhibition in vivo at 0.1 mg: inhaled or nasal, read-out: Broncho. at 24 h. As to the method:
This assay measures the ability of a test compound to provide bronchoprotection against methacholine (MCh)-induced bronchoconstriction in a rat. Male Sprague-Dawley rats (Harlan, Indianapolis, Ind.), weighing between 200 g and 350 g, were used for all studies. Test compound or vehicle (sterile deionized water) were dosed by inhalation (1H) over a 10 min period in a pie shaped inhalation chamber (R+S Molds, San Carlos, Calif.) using 5 mL of dosing solution. […] Rats were dosed with 100 μg of test compound unless otherwise indicated. At predetermined time points, rats were anesthetized with an intraperitoneal (IP) injection of 120 mg/kg inactin (thiobutabarbital). A supplemental dose (40 mg/kg, IP) was administered if the animal responded to physical stimuli (e.g. toe pinch). The surgical site was shaved and a 1-2 cm midline incision of the ventral aspect of the neck was made. The jugular vein was isolated and cannulated with a saline-filled polyethylene catheter (PE-50) to allow IV infusion of MCh. Trachea was dissected free and cannulated with a 14G needle (#NE-014, Small Parts, Miami Lakes, Fla.). After placement of the tracheal cannula, each rat was ventilated using a respirator (Model 683, Harvard Apparatus, Inc., MA) set at a stroke volume of 1 mL/100 g body weight (but not exceeding 2.5 mL volume) and a rate of 90 strokes per minute. A T-connector was placed along the respirator expiratory tubing to allow for measurement of changes in ventilation pressure (VP) using a Biopac transducer that was connected to a Biopac […]) pre-amplifier. Body temperature was maintained at 37° C. using a heating pad. Changes in VP were recorded using the Acknowledge Data Collection Software (Santa Barbara, Calif.). Baseline values were collected for at least 2.5 min. Rats were then challenged with non-cumulative intravenous (IV) infusions of 40 and 80 μg/kg MCh. MCh was infused intravenously for 2.5 minutes from a syringe pump (sp210iw, World Precision Instruments, Inc., Sarasota, Fla.) at a rate of 2 mL/kg/min, with a 2 minute interval between the two doses of MCh. Changes in ventilation pressure (cm H2O) in treated animals are expressed as % inhibition of MCh response relative to control animals. Other bronchoconstrictors, such as histamine and acetylcholine, can be used in place of MCh in this assay. Additionally, guinea pigs can be used instead of rats. […] Inhibition greater than or equal to 30 percent at 24 h is indicative of a long duration of action.

Where [2] appears, read: rat, 100 μg by inhalation, 24 h after administration.
The mark [3] stands for this setting: hM3 Muscarinic Receptor Binding, data rounded to nearest 0.1 nM.

Take `CC(Cc1cccc(NC(=O)CCCN(C)C(=O)CCN2CCC(OC(=O)Nc3ccccc3-c3ccccc3)CC2)c1)NC[C@H](O)c1ccc(O)c2[nH]c(=O)ccc12` (stereo partly drawn) [Compound I-10]: the affinity on hM3 muscarinic receptor corresponds to a Ki of 0.1 nM. The EC50 on hβ2 adrenergic receptor worked out at 1 nM. For the same molecule, in experiment [1] (setting [2]), the inhibition in vivo at 0.1 mg is above 30%.
The molecule `C[C@H](Cc1cccc(CCNC(=O)c2ccc(N(C)C(=O)CCN3CCC(OC(=O)Nc4ccccc4-c4ccccc4)CC3)cc2)c1)NC[C@H](O)c1ccc(O)c2[nH]c(=O)ccc12` [Compound I-55] displayed a Ki on hM3 muscarinic receptor (setting [3]) of 0.2 nM. The molecule also displayed an EC50 at hβ2 adrenergic receptor of 1 nM. Besides, in experiment [1] (setting [2]), the inhibition in vivo at 0.1 mg is above 30%.
In turn, `C[C@H](Cc1cccc(CC(=O)NCCCN(C)C(=O)CCN2CCC(OC(=O)Nc3ccccc3-c3ccccc3)CC2)c1)NC[C@H](O)c1ccc(O)c2[nH]c(=O)ccc12` [Compound I-12] returned a Ki on hM3 muscarinic receptor of 0.1 nM. Further, the EC50 on hβ2 adrenergic receptor was 1 nM. In addition, the “Broncho. at 24 h” value in experiment [1] (setting [2]) is “No”.
For `CC(Cc1cccc(CC(=O)NCCCN(C)C(=O)CCN2CCC(OC(=O)Nc3ccccc3-c3ccccc3)CC2)c1)NC[C@H](O)c1ccc(O)c2[nH]c(=O)ccc12` (stereo partly drawn) [Compound I-11], at hM3 muscarinic receptor, the Ki is 0.1 nM. This molecule also returned an EC50 at hβ2 adrenergic receptor of 1 nM. The inhibition in vivo at 0.1 mg in experiment [1] (setting [2]) was above 30%.
In turn, `C[C@H](Cc1cccc(CC(=O)NCc2ccc(N(C)C(=O)CCN3CCC(OC(=O)Nc4ccccc4-c4ccccc4)CC3)cc2)c1)NC[C@H](O)c1ccc(O)c2[nH]c(=O)ccc12` [Compound I-78] had an inhibitory constant (Ki) on hM3 muscarinic receptor of 0.3 nM. On hβ2 adrenergic receptor, this molecule gave an EC50 of 1 nM. Besides, in experiment [1] (setting [2]), the inhibition in vivo at 0.1 mg is above 30%.
On to `Cc1ccc(C(=O)NCc2cccc(CC(C)NC[C@H](O)c3ccc(O)c4[nH]c(=O)ccc34)c2)cc1N(C)C(=O)CCN1CCC(OC(=O)Nc2ccccc2-c2ccccc2)CC1` (stereo partly drawn) [Compound I-45], for which the affinity at hM3 muscarinic receptor (setting [3]) corresponds to a Ki of 0.2 nM. It took 1 nM to reach a half-maximal effect at hβ2 adrenergic receptor (EC50). The “Broncho. at 24 h” value in experiment [1] (setting [2]) was “No”.
On to `CN(C(=O)CCN1CCC(OC(=O)Nc2ccccc2-c2ccccc2)CC1)c1ccc(CC(=O)NCc2cccc(CCNC[C@H](O)c3ccc(O)c4[nH]c(=O)ccc34)c2)cc1` [Compound I-65], for which, at hM3 muscarinic receptor, the Ki amounted to 0.1 nM. The same molecule gave an EC50 on hβ2 adrenergic receptor of 1 nM. For the same molecule, the inhibition in vivo at 0.1 mg in experiment [1] (setting [2]) was above 30%.
`C[C@H](Cc1cccc(CNC(=O)Cc2ccc(N(C)C(=O)CCN3CCC(OC(=O)Nc4ccccc4-c4ccccc4)CC3)cc2)c1)NC[C@H](O)c1ccc(O)c2[nH]c(=O)ccc12` [Compound I-68] came in with a Ki on hM3 muscarinic receptor of 0.1 nM. The molecule further came in with an EC50 at hβ2 adrenergic receptor of 1 nM. Also, the inhibition in vivo at 0.1 mg in experiment [1] (setting [2]) is above 30%.
`CC(Cc1cccc(CC(=O)NCCCCN(C)C(=O)CCN2CCC(OC(=O)Nc3ccccc3-c3ccccc3)CC2)c1)NC[C@H](O)c1ccc(O)c2[nH]c(=O)ccc12` (stereo partly drawn) [Compound I-22] displayed a Ki at hM3 muscarinic receptor of 0.1 nM. Moreover, the concentration giving a half-maximal response (EC50) on hβ2 adrenergic receptor came to 1 nM. Besides, the inhibition in vivo at 0.1 mg in experiment [1] (setting [2]) was above 30%.
Regarding `CC(Cc1cccc(CCC(=O)NCc2ccc(N(C)C(=O)CCN3CCC(OC(=O)Nc4ccccc4-c4ccccc4)CC3)cc2)c1)NC[C@H](O)c1ccc(O)c2[nH]c(=O)ccc12` (stereo partly drawn) [Compound I-91], at hM3 muscarinic receptor, the Ki came to 0.2 nM. This molecule also gave an EC50 at hβ2 adrenergic receptor of 1 nM. In experiment [1] (setting [2]), the inhibition in vivo at 0.1 mg was above 30%.
`C[C@@H](Cc1cccc(CC(=O)NCCCN(C)C(=O)CCN2CCC(OC(=O)Nc3ccccc3-c3ccccc3)CC2)c1)NC[C@H](O)c1ccc(O)c2[nH]c(=O)ccc12` [Compound I-13, Biphenyl-2-ylcarbamic Acid 1-[2-({3-[2-(3-{(S)-2-[(R)-2-Hydroxy-2-(8-hydroxy-2-oxo-1,2-dihydroquinolin-5-yl)ethylamino]propyl}phenyl)acetylamino]-propyl}methylcarbamoyl)ethyl]piperidin-4-yl Ester Ditrifluoroacetic Acid Salt] registered a Ki on hM3 muscarinic receptor of 0.1 nM. Further, the concentration giving a half-maximal response (EC50) on hβ2 adrenergic receptor is 1 nM. Besides, in experiment [1] (Rattus norvegicus, 24 h), the inhibition in vivo at 0.1 mg is above 30%.
For `Cc1ccc(C(=O)Nc2cccc(CCNC[C@H](O)c3ccc(O)c4[nH]c(=O)ccc34)c2)cc1N(C)C(=O)CCN1CCC(OC(=O)Nc2ccccc2-c2ccccc2)CC1` [Compound I-33], affinity at hM3 muscarinic receptor was put at a Ki of 0.2 nM. The same molecule registered an EC50 on hβ2 adrenergic receptor of 1 nM. Moreover, the “Broncho. at 24 h” value in experiment [1] (setting [2]) was “No”.
For the molecule `C[C@@H](Cc1cccc(CCNC(=O)Cc2ccc(N(C)C(=O)CCN3CCC(OC(=O)Nc4ccccc4-c4ccccc4)CC3)cc2)c1)NC[C@H](O)c1ccc(O)c2[nH]c(=O)ccc12` [Compound I-87], the “Broncho. at 24 h” value in experiment [1] (setting [2]) is recorded as “Yes (Bronchoprotective effect present at 24 h, e.g., ≧30% inhibition of the MCh response at 24 h in the rat Einthoven assay (100 μg))”.
Consider `C[C@H](Cc1ccc(NC(=O)c2cccc(N(C)C(=O)CCN3CCC(OC(=O)Nc4ccccc4-c4ccccc4)CC3)c2)cc1)NC[C@H](O)c1ccc(O)c2[nH]c(=O)ccc12` [Compound I-42], for which, in experiment [1] (setting [2]), the “Broncho. at 24 h” value was “No”.
Take `CN(C(=O)CCN1CCC(OC(=O)Nc2ccccc2-c2ccccc2)CC1)c1cccc(CC(=O)Nc2cccc(CCNC[C@H](O)c3ccc(O)c4[nH]c(=O)ccc34)c2)c1` [Compound I-62]: the inhibition in vivo at 0.1 mg in experiment [1] (setting [2]) was above 30%.
On to `CC(Cc1cccc(CCNC(=O)Cc2ccc(N(C)C(=O)CCN3CCC(OC(=O)Nc4ccccc4-c4ccccc4)CC3)cc2)c1)NC[C@H](O)c1ccc(O)c2[nH]c(=O)ccc12` (stereo partly drawn) [Compound I-85], for which the inhibition in vivo at 0.1 mg in experiment [1] (setting [2]) was above 30%.
Consider `Cc1ccc(C(=O)Nc2ccc(CCNC[C@H](O)c3ccc(O)c4[nH]c(=O)ccc34)cc2)cc1N(C)C(=O)CCN1CCC(OC(=O)Nc2ccccc2-c2ccccc2)CC1` [Compound I-35], for which the “Broncho. at 24 h” value in experiment [1] (setting [2]) was “Yes (Bronchoprotective effect present at 24 h, e.g., ≧30% inhibition of the MCh response at 24 h in the rat Einthoven assay (100 μg))”.
As for `CC(Cc1ccc(NC(=O)c2cccc(N(C)C(=O)CCN3CCC(OC(=O)Nc4ccccc4-c4ccccc4)CC3)c2)cc1)NC[C@H](O)c1ccc(O)c2[nH]c(=O)ccc12` (stereo partly drawn) [Compound I-40], in experiment [1] (setting [2]), the inhibition in vivo at 0.1 mg was above 30%.

The record behind these values is patent US8551978B2 (Theravance, Inc., priority 2009, dated 2013).
